Laboratory results published in ChEMBL document CHEMBL1129832, “Rational design, synthesis, and serine protease inhibitory activity of a novel P1-argininal derivative featuring a conformationally constrained P2P3 bicyclic lactam moiety” (Bioorg Med Chem Lett, 1997).

Experiments:
Prothrombin = Prothrombin (Homo sapiens, UniProt P00734)
Plasminogen [1] = target: T1, Plasminogen (Homo sapiens, UniProt P00747)
Coagulation factor X = Coagulation factor X (Homo sapiens, UniProt P00742)
Description: In vitro inhibitory concentration required to inhibit Coagulation factor X by 50%

Serine protease 1 = Serine protease 1 (Homo sapiens, UniProt P07477)
[2] = target: Tissue-type plasminogen activator (Homo sapiens, UniProt P00750); experiment: In vitro inhibitory concentration required to inhibit tissue plasminogen activator cleavage of the chromogenic substrate by 50%; Inactive
Plasminogen [3] = target: T1, Plasminogen; remark: listed apart in the source

Coagulation factor X, sequence (P00742 41-179 limits assumed): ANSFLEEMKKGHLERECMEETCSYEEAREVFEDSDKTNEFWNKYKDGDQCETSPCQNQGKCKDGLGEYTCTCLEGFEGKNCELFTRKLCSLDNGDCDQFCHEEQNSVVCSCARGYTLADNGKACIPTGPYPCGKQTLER
Coagulation factor X, sequence (P00742 235-488 limits assumed): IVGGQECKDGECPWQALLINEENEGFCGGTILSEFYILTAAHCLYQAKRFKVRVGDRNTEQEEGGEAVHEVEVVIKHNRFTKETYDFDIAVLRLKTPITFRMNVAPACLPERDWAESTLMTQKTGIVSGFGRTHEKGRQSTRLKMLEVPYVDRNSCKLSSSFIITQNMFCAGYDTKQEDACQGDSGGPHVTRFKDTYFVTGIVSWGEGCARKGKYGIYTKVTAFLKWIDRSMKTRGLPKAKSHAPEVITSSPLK
Serine protease 1, sequence (P07477 whole entry): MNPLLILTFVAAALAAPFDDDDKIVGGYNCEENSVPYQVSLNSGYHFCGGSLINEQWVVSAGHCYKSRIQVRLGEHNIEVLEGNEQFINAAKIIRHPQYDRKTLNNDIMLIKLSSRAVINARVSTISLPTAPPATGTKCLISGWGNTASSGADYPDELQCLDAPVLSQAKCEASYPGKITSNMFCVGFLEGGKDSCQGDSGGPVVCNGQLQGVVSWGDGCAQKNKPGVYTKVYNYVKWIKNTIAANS
Tissue-type plasminogen activator, sequence (P00750 whole entry): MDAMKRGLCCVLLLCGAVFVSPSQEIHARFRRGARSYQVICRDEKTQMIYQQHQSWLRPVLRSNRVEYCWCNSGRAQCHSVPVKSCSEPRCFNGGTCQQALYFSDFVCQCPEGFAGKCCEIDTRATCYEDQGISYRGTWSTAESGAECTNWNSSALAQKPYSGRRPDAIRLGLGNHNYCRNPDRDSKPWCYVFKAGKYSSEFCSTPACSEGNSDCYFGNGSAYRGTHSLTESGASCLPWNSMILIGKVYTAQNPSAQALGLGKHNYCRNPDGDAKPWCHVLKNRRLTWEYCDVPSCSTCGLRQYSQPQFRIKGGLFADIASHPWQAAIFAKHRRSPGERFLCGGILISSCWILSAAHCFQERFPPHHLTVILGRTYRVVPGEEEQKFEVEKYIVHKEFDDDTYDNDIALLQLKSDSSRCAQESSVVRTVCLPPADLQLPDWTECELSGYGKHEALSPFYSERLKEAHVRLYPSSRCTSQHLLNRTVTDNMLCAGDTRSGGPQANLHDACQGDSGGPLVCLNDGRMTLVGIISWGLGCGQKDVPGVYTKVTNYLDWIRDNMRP
T1 sequence (P00747 97-580 limits assumed): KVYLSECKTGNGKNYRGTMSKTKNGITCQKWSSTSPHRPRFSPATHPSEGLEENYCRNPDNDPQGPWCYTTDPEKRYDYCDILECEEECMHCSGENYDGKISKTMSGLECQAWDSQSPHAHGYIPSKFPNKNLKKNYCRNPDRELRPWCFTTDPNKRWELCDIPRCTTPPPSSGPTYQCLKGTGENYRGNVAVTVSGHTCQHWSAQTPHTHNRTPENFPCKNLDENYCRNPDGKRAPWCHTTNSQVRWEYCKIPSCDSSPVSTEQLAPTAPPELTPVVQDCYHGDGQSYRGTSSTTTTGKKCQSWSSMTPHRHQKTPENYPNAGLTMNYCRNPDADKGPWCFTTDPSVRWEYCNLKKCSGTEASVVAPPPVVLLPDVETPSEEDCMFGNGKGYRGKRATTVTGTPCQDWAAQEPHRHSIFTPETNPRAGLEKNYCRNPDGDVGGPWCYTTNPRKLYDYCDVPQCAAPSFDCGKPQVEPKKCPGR
T1 sequence (P00747 581-810 limits assumed): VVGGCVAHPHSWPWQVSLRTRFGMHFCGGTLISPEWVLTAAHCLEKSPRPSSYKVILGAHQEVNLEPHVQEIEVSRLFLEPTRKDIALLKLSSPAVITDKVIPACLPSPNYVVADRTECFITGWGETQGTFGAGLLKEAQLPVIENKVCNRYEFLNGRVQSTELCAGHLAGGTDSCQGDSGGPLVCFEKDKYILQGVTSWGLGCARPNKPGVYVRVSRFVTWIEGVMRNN

Row | SMILES | IC50 (Prothrombin) | IC50 (Plasminogen [1]) | IC50 (Coagulation factor X) | IC50 (Serine protease 1) | IC50 [2] | IC50 (Plasminogen [3])
1 | COC(=O)C[C@H](NS(=O)(=O)Cc1ccccc1)C(=O)N1CCCC1C(=O)N[C@H]1CCCN(C(=N)N)C1O (stereo partly specified) | 5.01 nM | 14.8 nM | 29.7 nM | 2.58 nM | – | –
2 | CCCC(CCC)C(=O)N[C@@H](CC(=O)OC)C(=O)N1CCCC1C(=O)N[C@H]1CCCN(C(=N)N)C1O (stereo partly specified) | 1.1 nM | 315 nM | – | 1.36 nM | Not Active | –
3 | N=C(N)N1CCC[C@H](NC(=O)CN2CCC[C@H](NS(=O)(=O)Cc3ccccc3)C2=O)C1O (stereo partly specified) | – | – | > 2500 nM | – | Not Active | Not Active
4 | N=C(N)N1CCC[C@H](NC(=O)C2CS[C@H]3CC[C@H](NS(=O)(=O)Cc4ccccc4)C(=O)N23)C1O (stereo partly specified) | 16.4 nM | 923 nM | > 2500 nM | 11.6 nM | Not Active | –
